Assays:
[1] = system: patients; assay: Clinical trials of agomelatine: acceptability, tolerability and drug interactions; format: in vivo, human
From the text: In fact, agomelatine makes it possible to act simultaneously on the behaviour disorders and on the resynchronisation of disturbed circadian rhythms.

[2] = system: children with Smith-Magenis syndrome; assay: Exploratory phase II clinical study in children with Smith-Magenis syndrome (actigraphy, Achenbach questionnaire); format: in vivo, human; settings: agomelatine 1-5 mg/kg co-administered with acebutolol 10 mg/kg
Method: An exploratory phase II study was carried out in children with Smith-Magenis syndrome. Agomelatine 1-5 mg/kg was co-administered with acebutolol 10 mg/kg, a […]. The main analysis criteria were actigraphy parameters recorded over five periods of 30 consecutive days, after 30 days of treatment, and 3, 5 and 15 months of treatment, and also the Achenbach questionnaire, allowing the behaviour disorders to be assessed.
These major effects were carried over to the families, who, following the highly positive consequences of the treatment on family life, requested continuation of the treatment on a compassionate basis.

[3] = system: Smith-Magenis syndrome patients; settings: evening exogenous melatonin with morning beta-adrenergic antagonists; cited from earlier work
[4] = actigraphy, up to 15 months of treatment

Row | Structure (SMILES) | drug interactions ([1]; human, in vivo) | clinical and biological tolerability ([1]; more than 4000 patients exposed in clinical trials) | behaviour (behaviour disorders, Achenbach questionnaire) [2] | clinical improvement found by a specialist [2] | sleep quality recorded [2] | duration of daytime naps [2, 4] | duration of night waking [2, 4] | frequency of night waking [2, 4] | activity in respect of the behaviour disorders [3]
1 | COc1ccc2cccc(CCNC(C)=O)c2c1 [agomelatine, N-[2-(7-methoxy-1-naphthyl)ethyl]acetamide] | no drug interactions | excellent clinical and biological tolerability | Real progress in relation to behaviour | Major clinical improvement | a calm, deep sleep, less-broken nights and less-early waking in the morning | reduction in the duration of daytime naps | reduction | reduction | 
2 | COc1ccc2[nH]cc(CCNC(C)=O)c2c1 [melatonin] |  |  |  |  |  |  |  |  | no activity
